What was measured:
[1] = system: S. aureus; assay: In vitro MIC, serial two-fold agar dilution, primary evaluation Gp (S. aureus, 6 strains); format: cell-based; details: CBPC = 100%; geometric mean of MICs; Mueller-Hinton agar
Description: (§1) Minimun inhibitory concentrations (MIC) were determined by the serial two-fold agar dilution method using Steers' apparatus on Mueller-Hinton agar plate against 31 test organisms for the primary screening and also against 64 strains of Pseudomonas aeruginosa for the secondary evaluation. The results are shown in Table 1 in terms of relative activity with respect to the standard compound CBPC (carbenicillin) which was set at 100%. In each group the calculation was based on the geometric mean of the observed MICs.
*GP = S. aureus (6 strains);

[2] = system: E. coli (9), Klebsiella sp. (2), Pr. mirabilis (1), Sal. enteritidis (1); assay: In vitro MIC, serial two-fold agar dilution, primary evaluation Gn-I (E. coli, Klebsiella sp., Pr. mirabilis, Sal. enteritidis); format: cell-based; details: CBPC = 100%; geometric mean of MICs; Mueller-Hinton agar
Description: as §1
GnI = E. coli (9), Klebsiella sp. (2), Pr. mirabilis (1), Sal.

[3] = system: Ent. cloacae (3), Pr. vulgaris (1), Pr. morganii (1), S. marcescen (1); assay: In vitro MIC, serial two-fold agar dilution, primary evaluation Gn-II (Ent. cloacae, Pr. vulgaris, Pr. morganii, S. marcescens); format: cell-based; details: CBPC = 100%; geometric mean of MICs; Mueller-Hinton agar
Description: as §1
GnII = Ent. cloacae (3), Pr. vulgaris (1), Pr. morganii (1), S. marcescen

[4] = system: Ps. aeruginosa; assay: In vitro MIC, serial two-fold agar dilution, primary evaluation Ps (6 strains); format: cell-based; details: CBPC = 100%; geometric mean of MICs; Mueller-Hinton agar
Description: as §1
Ps. = Ps. aeruginosa (6).

[5] = system: Pseudomonas aeruginosa; assay: In vitro MIC, serial two-fold agar dilution, secondary evaluation against Pseudomonas aeruginosa strains; format: cell-based; details: CBPC = 100%; geometric mean of MICs; 61-64 strains
Description: as §1

[6] = system: Pseudomonas aeruginosa A9843; assay: In vivo efficacy, experimental infection in mice, intramuscular treatment, Pseudomonas aeruginosa A9843; parameters: species or system Pseudomonas aeruginosa (infected mice); details: A9843, im, 120 h, I.M., 100×LD50 challenge i.p., 5 days, read-out: PD50 Pseudomonas aeruginosa A9843
Description: (§2) The in vivo efficacy was evaluated by intramuscular treatment against three kinds of experimental infection in mice.
(§3) The in vivo tests were carried out using the following three pathogenic organisms:
Pseudomonas aeruginosa A9843
(§4) Mice were challenged intraperitoneally with approximately a 100×LD50 dose of the pathogens in a 5% mucin suspension. The mice were treated with test compound by I.M. route immediately after the bacterial challenge.

[7] = Antibiotic blood levels in mice following intramuscular administration (paper disc-agar diffusion, Escherichia coli NIHJ as assay organism); format: in vivo; details: mouse, im, I.M., 20 mg./kg.; for half-life: read-out: Blood level, Half-life; for Cmax: read-out: Blood level, Peak Concentration
Description: Antibiotic blood levels were determined in mice following intramuscular administration of the test compounds at 20 mg./kg. The blood samples were collected from the orbital sinuses into heparinized capillary tubes at 15, 30, 60 and 120 minutes after administration. The antibiotic concentration was determined by the paper disc-agar diffusion method using Escherichia coli NIHJ as the assay organism.

[8] = system: Escherichia coli Juhl; assay: In vivo efficacy, experimental infection in mice, intramuscular treatment, Escherichia coli Juhl; parameters: species or system Escherichia coli (infected mice); details: im, 120 h, I.M., 100×LD50 challenge i.p., 5 days, read-out: PD50 Escherichia coli Juhl
Description: as §2, §3, §4

| SMILES | In vitro relative activity, primary evaluation Gp (6) [1] | In vitro relative activity, primary evaluation Gn-I (13) [2] | In vitro relative activity, primary evaluation Gn-II (6) [3] | In vitro relative activity, primary evaluation Ps (6) [4] | In vitro relative activity, secondary, Pseudomonas aeruginosa (61-64) [5] | ED50 [6] | half-life [7] | Cmax [7] | ED50 [8] |
| --- | --- | --- | --- | --- | --- | --- | --- | --- | --- |
| O=C([O-])C1=C(C[n+]2ccc(C(=O)O)c(C(=O)O)c2)CSC2C(NC(=O)[C@H](NC(=O)c3cnc4cccnc4c3O)c3ccc(O)cc3)C(=O)N12 (stereo partly drawn) [BB-S586, 7-[D-α-(4-Hydroxy-1,5-naphthyridine-3-carboxamido)-α-(4-hydroxyphenyl)acetamido]-3-(3,4-dicarboxypyridinium)methyl-3-cephem-4-carboxylate] | 6% | 88% | 11% | 362% | 351% |  |  |  |  |
| O=C([O-])C1=C(C[n+]2cccc(S(=O)(=O)O)c2)CSC2C(NC(=O)[C@H](NC(=O)c3cnc4cccnc4c3O)c3ccc(O)c(Cl)c3)C(=O)N12 (stereo partly drawn) [BB-S601, 7-[D-α-(4-Hydroxy-1,5-naphthyridine-3-carboxamido)-α-(3-chloro-4-hydroxyphenyl)acetamido]-3-(3-sulfopyridinium)methyl-3-cephem-4-carboxylate] | 79% | 107% | 25% | 3200% | 2490% | 4.4 mg/kg | 70 min | 10000 ng/mL |  |
| O=C(O)CCc1ccc[n+](CC2=C(C(=O)[O-])N3C(=O)C(NC(=O)[C@H](NC(=O)c4cnc5cccnc5c4O)c4ccc(O)cc4)C3SC2)c1 (some centres unmarked) [BB-S619] | 31% | 88% | 18% | 725% | 1600% | 4.6 mg/kg | 55 min | 10000 ng/mL | 3.2 mg/kg |
| O=C([O-])C1=C(C[n+]2cccc(CCS(=O)(=O)O)c2)CSC2C(NC(=O)[C@H](NC(=O)c3cnc4cccnc4c3O)c3ccc(O)cc3)C(=O)N12 (stereo partly drawn) [BB-S620, 7-[D-α-(4-Hydroxy-1,5-naphthyridine-3-carboxamido)-α-(4-hydroxyphenyl)acetamido]-3-[3-(2-sulfoethyl)pyridinium]methyl 3-cephem-4-carboxylate] | 28% | 60% | 14% | 800% | 1800% | 6.25 mg/kg | 40 min | 12500 ng/mL | 3.2 mg/kg |
| O=C(O)CSc1cc[n+](CC2=C(C(=O)[O-])N3C(=O)C(NC(=O)[C@H](NC(=O)c4cnc5cccnc5c4O)c4ccc(O)c(Cl)c4)C3SC2)cc1 (stereo partly drawn) [BB-S621, 7-[D-α-(4-Hydroxy-1,5-naphthyridine-3-carboxamido)-α-(3-chloro-4-hydroxyphenyl)acetamido]-3-[4-(carboxymethylthio)-pyridinium]methyl-3-cephem-4-carboxylate] | 20% | 121% | 18% | 800% | 1400% | 4.6 mg/kg | 54 min | 10000 ng/mL | 2.4 mg/kg |
| O=C([O-])C1=C(C[n+]2cccc(C(=O)O)c2)CSC2C(NC(=O)[C@H](NC(=O)c3cnc4cccnc4c3O)c3ccsc3)C(=O)N12 (stereo partly drawn) [BB-S624, 7-[D-α-(4-Hydroxy-1,5-naphthyridine-3-carboxamido)-α-(3-thienyl)acetamido]-3-(3-carboxypyridinium)methyl-3-cephem-4-carboxylate] | 79% | 47% | 10% | 328% | 413% | 20 mg/kg | 50 min | 9500 ng/mL |  |
| O=C([O-])C1=C(C[n+]2cccc(S(=O)(=O)O)c2)CSC2C(NC(=O)[C@H](NC(=O)c3cnc4cccnc4c3O)c3ccsc3)C(=O)N12 (stereo partly drawn) [BB-S625, 7-[D-α-(4-Hydroxy-1.5-naphthyridine-3-carboxamido)-α-(3-thienyl)acetamido]-3-(3-sulfopyridinium)methyl-3-cephem-4-carboxylate] | 50% | 32% | 7% | 200% | 400% | 36 mg/kg | 54 min | 10000 ng/mL |  |
| O=C(O)C=Cc1ccc[n+](CC2=C(C(=O)[O-])N3C(=O)C(NC(=O)[C@H](NC(=O)c4cnc5cccnc5c4O)c4ccsc4)C3SC2)c1 (stereo partly drawn) [BB-S626, 7-[D-α-(4-Hydroxy-1,5-naphthyridine-3-carboxamido)-α-(3-thienyl)acetamido]-3-[3-(2-carboxyvinyl)pyridinium]methyl-3-cephem-4-carboxylate] | 45% | 41% | 11% | 231% | 460% | 30 mg/kg | 42 min | 8800 ng/mL |  |
| O=C(O)CSc1ccc[n+](CC2=C(C(=O)[O-])N3C(=O)C(NC(=O)[C@H](NC(=O)c4cnc5cccnc5c4O)c4ccc(O)cc4)C3SC2)c1 (stereo partly drawn) [BB-S636, 7-[D-α-(4-Hydroxy-1,5-naphthyridine-3-carboxamido)-α-(4-hydroxyphenyl)acetamido]-3-(3-carboxymethylthiopyridinium)-methyl-3-cephem-4-carboxylate] | 71% | 242% | 50% | 7070% |  |  |  |  |  |
| O=C(O)CSc1ccc[n+](CC2=C(C(=O)[O-])N3C(=O)C(NC(=O)[C@H](NC(=O)c4cnc5cccnc5c4O)c4ccc(O)c(Cl)c4)C3SC2)c1 (stereo partly drawn) [BB-S637, 7-[D-α-(4-Hydroxy-1,5-naphthyridine-3-carboxamido)-α-(3-chloro-4-hydroxyphenyl)acetamido]-3-(3-carboxymethylthiopyridinium)methyl-3-cephem-4-carboxylate] | 71% | 113% | 25% | 3530% |  |  |  |  |  |
| O=C(O)CSc1ccc[n+](CC2=C(C(=O)[O-])N3C(=O)C(NC(=O)[C@H](NC(=O)c4cnc5cccnc5c4O)c4ccc(O)c(O)c4)C3SC2)c1 (stereo partly drawn) [BB-S638, 7-[D-α-(4-Hydroxy-1,5-naphthyridine-3-carboxamido)-α-(3,4-dihydroxyphenyl)acetamido]-3-(3-carboxymethylthiopyridinium)-methyl-3-cephem-4-carboxylate] | 8% | 69% | 8% | 2380% |  |  |  |  |  |
| O=C(O)CSc1cc[n+](CC2=C(C(=O)[O-])N3C(=O)C(NC(=O)[C@H](NC(=O)c4cnc5cccnc5c4O)c4ccc(O)c(O)c4)C3SC2)cc1 (stereo partly drawn) [BB-S639, 7-[D-α-(4-Hydroxy-1,5-naphthyridine-3-carboxamido)-α-(3,4-dihydroxyphenyl)acetamido]-3-(4-carboxymethylthiopyridinium)-methyl-3-cephem-4-carboxylate] | 20% | 242% | 35% | 4310% |  |  |  |  |  |
